Measurements reported in patent US11414431B2, “Substituted pyrazolo[1,5-a]pyrimidines as TYK2 inhibitors” (Nimbus Lakshmi, Inc., priority 2018, dated 2022).
Read-outs that look alike come from different tables or passages of the source.

Experiments:
TYK2 = TYK2 (Homo sapiens (Human), UniProt P29597); assay: TYK2 Radioactive Kinase Assay; assay type: biochemical; conditions: read-out: TYK2 (% Inhibition at 10 μM)
[1] = test system: IL-12 induced STAT4 phosphorlyation mediated by TYK2/JAK2; assay: IL-12 Induced pSTAT4 in Human PBMC; assay type: cell-based; conditions: 1.7 ng/mL IL-12 for 30 minutes
Outline: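 Thawed human PBMC pre-incubated with compound 1 hr at 37° C (0.1% DMSO final), then stimulated 30 minutes with IL-12 at 1.7 ng/mL final. pSTAT4 and total STAT4 measured in cell lysates with MSD reagents.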

JAK2 = JAK2 (Homo sapiens (Human), UniProt O60674); assay: JAK2 Radioactive Kinase Assay; assay type: biochemical; conditions: for inhibition at 10 µM: read-out: JAK2 (% Inhibition at 10 μM)
Chain of JAK2 (O60674 whole entry): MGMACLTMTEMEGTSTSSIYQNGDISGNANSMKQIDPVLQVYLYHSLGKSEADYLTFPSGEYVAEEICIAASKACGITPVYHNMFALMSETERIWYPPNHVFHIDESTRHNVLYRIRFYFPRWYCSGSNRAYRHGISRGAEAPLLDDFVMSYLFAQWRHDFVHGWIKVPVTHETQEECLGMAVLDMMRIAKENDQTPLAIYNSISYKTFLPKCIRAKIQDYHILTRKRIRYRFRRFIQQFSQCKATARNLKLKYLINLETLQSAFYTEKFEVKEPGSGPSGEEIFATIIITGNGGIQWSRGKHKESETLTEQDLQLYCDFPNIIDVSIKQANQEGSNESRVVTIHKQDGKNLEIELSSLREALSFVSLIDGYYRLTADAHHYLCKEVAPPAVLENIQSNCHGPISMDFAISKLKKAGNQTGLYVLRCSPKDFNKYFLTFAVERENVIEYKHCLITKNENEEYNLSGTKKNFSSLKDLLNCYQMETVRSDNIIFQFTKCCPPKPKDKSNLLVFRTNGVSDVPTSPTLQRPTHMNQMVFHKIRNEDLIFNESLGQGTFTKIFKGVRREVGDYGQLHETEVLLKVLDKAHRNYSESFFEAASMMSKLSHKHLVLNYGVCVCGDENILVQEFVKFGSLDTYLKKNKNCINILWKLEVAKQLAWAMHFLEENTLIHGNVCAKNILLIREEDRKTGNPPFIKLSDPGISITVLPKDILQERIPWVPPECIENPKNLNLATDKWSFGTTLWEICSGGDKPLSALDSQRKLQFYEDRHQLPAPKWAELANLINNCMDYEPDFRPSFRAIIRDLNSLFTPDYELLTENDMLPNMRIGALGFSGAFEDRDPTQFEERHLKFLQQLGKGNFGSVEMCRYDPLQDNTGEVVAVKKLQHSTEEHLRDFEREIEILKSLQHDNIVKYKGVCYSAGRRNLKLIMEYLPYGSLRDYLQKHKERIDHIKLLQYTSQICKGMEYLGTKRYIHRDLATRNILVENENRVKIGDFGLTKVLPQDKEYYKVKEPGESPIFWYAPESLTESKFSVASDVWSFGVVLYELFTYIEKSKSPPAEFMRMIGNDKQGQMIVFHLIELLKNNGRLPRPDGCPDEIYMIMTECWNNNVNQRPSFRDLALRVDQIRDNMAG
Method: Peptide substrate, [[…]], (20 μM) was prepared in reaction buffer (20 mM Hepes pH 7.5, 10 mM MgCl2, 1 mM EGTA, 0.02% Brij35, 0.02 mg/mL BSA, 0.1 mM […], 2 mM DTT, 1% DMSO. TYK2 (Invitrogen) kinase was added, followed by compounds in DMSO. 33PATP was added to initiate the reaction in ATP at […]. Kinase reaction was incubated for 120 min at room temp and reactions were spotted onto P^81 ion exchange paper (Whatman #3698-915), and then washed extensively in 0.75% phosphoric acid, prior to reading the radioactivity counts. For JAK2 (Invitrogen) kinase assay the peptide substrate poly[Glu:Tyr] (4:1), 0.2 mg/mL was used, in the reaction carried out the same as for TYK2.

[2] = target: human TYK2 (JH2domain-pseudokinase) (Homo sapiens (Human), UniProt P29597); assay: TYK2 JH2 Domain Binding Assay (KINOMEscan); conditions: 11-point 3-fold dilution, top concentration 30,000 nM, duplicate; read-out: hTYK2_JH2_Binding (Kd; nM)
Chain of human TYK2 (JH2domain-pseudokinase) (P29597 556-888): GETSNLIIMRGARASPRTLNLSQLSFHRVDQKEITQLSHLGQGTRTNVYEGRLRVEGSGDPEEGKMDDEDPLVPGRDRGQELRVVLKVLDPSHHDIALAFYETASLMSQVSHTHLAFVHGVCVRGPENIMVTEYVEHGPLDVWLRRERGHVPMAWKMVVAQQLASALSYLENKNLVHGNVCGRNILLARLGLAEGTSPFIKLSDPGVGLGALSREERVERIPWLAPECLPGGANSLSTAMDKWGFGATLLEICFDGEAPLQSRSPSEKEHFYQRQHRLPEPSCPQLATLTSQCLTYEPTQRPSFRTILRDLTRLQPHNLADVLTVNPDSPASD
Outline: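 KINOMEscan competition binding: HEK293-expressed NFkB-fused TYK2 JH2 (G556–D888), DNA-tagged, against immobilized ligand beads, 1 h shaking at room temperature, 0.9% DMSO. Bound kinase quantified by qPCR.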

[3] = compound at 10 μM, peptide substrate […]
[4] = compound at 10 μM, substrate poly[Glu:Tyr] (4:1)

Chain of TYK2 (P29597 whole entry): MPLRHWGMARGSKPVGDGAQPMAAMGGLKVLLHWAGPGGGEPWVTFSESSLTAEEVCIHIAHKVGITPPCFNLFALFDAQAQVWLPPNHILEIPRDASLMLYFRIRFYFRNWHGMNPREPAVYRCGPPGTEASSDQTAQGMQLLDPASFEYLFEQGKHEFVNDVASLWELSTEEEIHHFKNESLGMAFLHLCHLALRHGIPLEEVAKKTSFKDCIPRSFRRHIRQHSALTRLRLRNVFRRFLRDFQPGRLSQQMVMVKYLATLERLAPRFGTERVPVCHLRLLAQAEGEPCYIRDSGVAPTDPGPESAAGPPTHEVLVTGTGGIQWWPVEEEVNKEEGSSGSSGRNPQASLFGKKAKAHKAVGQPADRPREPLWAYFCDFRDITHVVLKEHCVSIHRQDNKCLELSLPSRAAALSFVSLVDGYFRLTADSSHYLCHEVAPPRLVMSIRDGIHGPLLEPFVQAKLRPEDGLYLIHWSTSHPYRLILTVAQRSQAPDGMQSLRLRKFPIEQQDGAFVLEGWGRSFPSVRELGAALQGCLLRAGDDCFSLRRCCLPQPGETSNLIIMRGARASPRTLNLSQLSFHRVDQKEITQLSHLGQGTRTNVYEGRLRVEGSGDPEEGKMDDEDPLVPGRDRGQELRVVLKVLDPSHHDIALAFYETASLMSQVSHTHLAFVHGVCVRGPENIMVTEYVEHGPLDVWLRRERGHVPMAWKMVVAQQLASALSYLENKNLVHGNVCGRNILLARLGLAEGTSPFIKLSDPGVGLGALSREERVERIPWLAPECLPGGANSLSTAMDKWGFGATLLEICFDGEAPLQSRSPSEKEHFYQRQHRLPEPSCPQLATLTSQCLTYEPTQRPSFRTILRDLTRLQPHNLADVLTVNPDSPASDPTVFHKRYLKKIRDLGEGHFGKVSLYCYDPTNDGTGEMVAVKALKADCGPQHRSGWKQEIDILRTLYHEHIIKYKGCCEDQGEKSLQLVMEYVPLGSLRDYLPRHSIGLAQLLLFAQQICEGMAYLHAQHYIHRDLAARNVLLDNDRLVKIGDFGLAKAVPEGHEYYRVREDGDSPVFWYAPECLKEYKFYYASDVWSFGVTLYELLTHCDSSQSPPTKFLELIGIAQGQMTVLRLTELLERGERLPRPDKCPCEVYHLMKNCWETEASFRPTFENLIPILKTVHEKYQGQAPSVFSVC

In the case of CNc1cc(Nc2cccn([C@H]3[C@@H]4COC[C@@H]43)c2=O)nc2c(C(=O)NC3C[C@H]3OC)cnn12 (mixture of isomers) [Compound I-24, 5-((1-((1R,5S,6r)-3-Oxabicyclo[3.1.0]hexan-6-yl)-2-oxo-1,2-dihydropyridin-3-yl)amino)-N-(2-methoxycyclopropyl)-7-(methylamino)pyrazolo[1,5-a]pyrimidine-3-carboxamide], the inhibition at 10 µM (TYK2; [3]) is reported as < 50%, the IC50 ([1]; 0.5 h) is reported as < 0.1 µM and the inhibition at 10 µM (JAK2; [4]) is reported as < 50%.

With CNc1cc(Nc2cccn([C@H]3C[C@H](F)C3)c2=O)nc2c(C(=O)NC3CC[C@@H](OC)C3)cnn12 (mixture of isomers) [Compound I-66, 5-((1-((1r,3R)-3-Fluorocyclobutyl)-2-oxo-1,2-dihydropyridin-3-yl)amino)-N-(3-methoxycyclopentyl)-7-(methylamino)pyrazolo[1,5-a]pyrimidine-3-carboxamide] the inhibition at 10 µM (TYK2; [3]) was < 50% and the inhibition at 10 µM (JAK2; [4]) was < 50%.

With CNc1cc(Nc2cccn(C3CCC[C@@](C)(O)C3)c2=O)nc2c(C(=O)N[C@@H]3C[C@@H]3F)cnn12 (stereo partly drawn) [Compound I-6, N-((1R,2S)-2-Fluorocyclopropyl)-5-((1-(3-hydroxy-3-methylcyclohexyl)-2-oxo-1,2-dihydropyridin-3-yl)amino)-7-(methylamino)pyrazol[1,5-a]pyrimidine-3-carboxamide] the inhibition at 10 µM (TYK2; [3]) was < 50% and the inhibition at 10 µM (JAK2; [4]) was < 50%.

CNc1cc(Nc2cccn([C@H]3C[C@H](F)C3)c2=O)nc2c(C(=O)N[C@@H]3C[C@@H]3F)cnn12 [Compound I-7, 5-((1-((1r,3R)-3-Fluorocyclobutyl)-2-oxo-1,2-dihydropyridin-3-yl)amino)-N-((1R,2S)-2-fluorocyclopropyl)-7-(methylamino)pyrazolo[1,5-a]pyrimidine-3-carboxamide] was tested, and the inhibition at 10 µM (TYK2; [3]) was < 50%, the IC50 ([1]; 0.5 h) was < 0.1 µM and the inhibition at 10 µM (JAK2; [4]) was < 50%.

In the case of CNc1cc(Nc2cccn(C3CC(F)(F)C3)c2=O)nc2c(C(=O)NC3C[C@H]3OC)cnn12 (stereo partly drawn) [Compound I-33, 5-((1-(3,3-Difluorocyclobutyl)-2-oxo-1,2-dihydropyridin-3-yl)amino)-N-((trans-1,2)-2-methoxycyclopropyl)-7-(methylamino)pyrazolo[1,5-a]pyrimidine-3-carboxamide], the inhibition at 10 µM (TYK2; [3]) is reported as < 50%, the IC50 ([1]; 0.5 h) is reported as < 0.1 µM and the inhibition at 10 µM (JAK2; [4]) is reported as < 50%.

CNc1cc(Nc2cccn([C@H]3C[C@H](F)C3)c2=O)nc2c(C(=O)NC3CC[C@@H]3OC)cnn12 (stereo partly drawn) [Compound I-46, 5-((1-((1r,3S)-3-Fluorocyclobutyl)-2-oxo-1,2-dihydropyridin-3-yl)amino)-N-((trans-1,2)-2-methoxycyclobutyl)-7-(methylamino)pyrazolo[1,5-a]pyrimidine-3-carboxamide] was tested, and the inhibition at 10 µM (TYK2) was < 50%, the IC50 ([1]; 0.5 h) was < 0.1 µM and the inhibition at 10 µM (JAK2) was < 50%.

For CNc1cc(Nc2cccn(C3CC(F)(F)C3)c2=O)nc2c(C(=O)N[C@@H]3CCC[C@@H](O)C3)cnn12 [Compound I-62, 5-((1-(3,3-Difluorocyclobutyl)-2-oxo-1,2-dihydropyridin-3-yl)amino)-N-((1R,3R)-3-hydroxycyclohexyl)-7-(methylamino)pyrazolo[1,5-a]pyrimidine-3-carboxamide], the inhibition at 10 µM (TYK2; [3]) was < 50% and the inhibition at 10 µM (JAK2; [4]) was < 50%.

For CNc1cc(Nc2cccn(C3CC(F)(F)C3)c2=O)nc2c(C(=O)N[C@H]3CCC[C@H](O)C3)cnn12 [Compound I-63, 5-((1-(3,3-Difluorocyclobutyl)-2-oxo-1,2-dihydropyridin-3-yl)amino)-N-((1S,3S)-3-hydroxycyclohexyl)-7-(methylamino)pyrazolo[1,5-a]pyrimidine-3-carboxamide], the inhibition at 10 µM (TYK2; [3]) was < 50% and the inhibition at 10 µM (JAK2; [4]) was < 50%.

In the case of CNc1cc(Nc2cccn(-c3ccccn3)c2=O)nc2c(C(=O)N[C@@H]3CC[C@@H](OC)C3)cnn12 [Compound I-67, N-((1R,3R)-3-Methoxycyclopentyl)-7-(methylamino)-5-((2-oxo-2H-[1,2′-bipyridin]-3-yl)amino)pyrazolo[1,5-a]pyrimidine-3-carboxamide], the inhibition at 10 µM (TYK2; [3]) is reported as < 50% and the inhibition at 10 µM (JAK2; [4]) is reported as < 50%.

In the case of CNc1cc(Nc2cccn([C@H]3CC[C@H](OC)CC3)c2=O)nc2c(C(=O)N[C@@H]3CC[C@@H](OC)C3)cnn12 [Compound I-69, 5-((1-((1r,4R)-4-Methoxycyclohexyl)-2-oxo-1,2-dihydropyridin-3-yl)amino)-N-((1R,3R)-3-methoxycyclopentyl)-7-(methylamino)pyrazolo[1,5-a]pyrimidine-3-carboxamide], the “JAK2 (% Inhibition at 10 μM)” value (JAK2; [4]) is reported as “A (percent inhibition at 10 μM lower than 50)”.

In the case of CNc1cc(Nc2cccn([C@H]3CC[C@H](OC)CC3)c2=O)nc2c(C(=O)N[C@H]3CC[C@H](OC)C3)cnn12 [Compound I-70, 5-((1-((1 r,4S)-4-Methoxycyclohexyl)-2-oxo-1,2-dihydropyridin-3-yl)amino)-N-((1S,3S)-3-methoxycyclopentyl)-7-(methylamino)pyrazolo[1,5-a]pyrimidine-3-carboxamide], the “JAK2 (% Inhibition at 10 μM)” value (JAK2; [4]) is reported as “A (percent inhibition at 10 μM lower than 50)”.

CNc1cc(-c2cnc3n([C@H]4COC[C@@H]4O)cccc2-3)nc2c(C(=O)NC3CC3)cnn12 [Compound I-816] was tested, and the Kd [2] was < 0.2 nM and the IC50 [1] was < 0.1 µM.

In the case of CNc1cc(-c2cnc3n([C@@H]4COC[C@H]4O)cccc2-3)nc2c(C(=O)NC3CC3)cnn12 [Compound I-817], the Kd [2] is reported as < 0.2 nM and the IC50 [1] is reported as < 0.1 µM.

For CNc1cc(-c2cnc3n([C@@H]4CCOC[C@H]4O)cccc2-3)nc2c(C(=O)NC3CC3)cnn12 [Compound I-818, N-Cyclopropyl-5-(7-((3S,4R)-3-hydroxytetrahydro-2H-pyran-4-yl)-7H-pyrrolo[2,3-b]pyridin-3-yl)-7-(methylamino)pyrazolo[1,5-a]pyrimidine-3-carboxamide], the Kd [2] was < 0.2 nM and the IC50 ([1]; 0.5 h) was < 0.1 µM.

For CNc1cc(-c2cnc3n([C@H]4CCOC[C@@H]4O)cccc2-3)nc2c(C(=O)NC3CC3)cnn12 [Compound I-819], the Kd [2] was < 0.2 nM and the IC50 [1] was < 0.1 µM.

CNc1cc(-c2cnc3n([C@H]4COC[C@@H]4O)cccc2-3)nc2c(C(=O)N[C@@H]3C[C@@H]3F)cnn12 [Compound I-820] was tested, and the Kd [2] was < 0.2 nM and the IC50 [1] was < 0.1 µM.

In the case of CNc1cc(-c2cnc3n([C@@H]4COC[C@H]4O)cccc2-3)nc2c(C(=O)N[C@@H]3C[C@@H]3F)cnn12 [Compound I-821], the Kd [2] is reported as < 0.2 nM and the IC50 [1] is reported as 0.1 to 0.5 µM.

CNc1cc(-c2cnc3n([C@@H]4CCOC[C@H]4O)cccc2-3)nc2c(C(=O)N[C@@H]3C[C@@H]3F)cnn12 [Compound I-824] was tested, and the Kd [2] was < 0.2 nM and the IC50 [1] was < 0.1 µM.

CNc1cc(-c2cnc3n([C@H]4CCOC[C@@H]4O)cccc2-3)nc2c(C(=O)N[C@@H]3C[C@@H]3F)cnn12 [Compound I-825] was tested, and the Kd [2] was < 0.2 nM and the IC50 [1] was < 0.1 µM.

With CNc1cc(-c2cn([C@H]3C[C@@H](COC)C3)c3ncccc23)nc2c(C(=O)N[C@H]3CC[C@@H]3OC)cnn12 [Compound I-933] the Kd [2] was < 0.2 nM and the IC50 [1] was < 0.1 µM.

In the case of CNc1cc(-c2cn([C@H]3[C@@H]4COC[C@@H]43)c3ncccc23)nc2c(C(=O)N[C@@H]3CC[C@H]3O)cnn12 [Compound I-960], the Kd [2] is reported as < 0.2 nM and the IC50 [1] is reported as 0.1 to 0.5 µM.

In the case of CNc1cc(-c2cnc3n(CC(=O)N4CCOCC4)cccc2-3)nc2c(C(=O)NC3CC[C@@H]3OC)cnn12 (some centres unmarked) [Compound I-962], the Kd [2] is reported as < 0.2 nM and the IC50 [1] is reported as 0.5 to 1 µM.

CNc1cc(-c2cnc3n(CC(=O)N4CC5(COC5)C4)cccc2-3)nc2c(C(=O)N[C@H]3CC[C@@H]3OC)cnn12 [Compound I-1012] was tested, and the Kd [2] was < 0.2 nM and the IC50 [1] was > 1 µM.

For CNc1cc(-c2cnc3n(C4CCOCC4)cccc2-3)nc2c(C(=O)N[C@H]3CC[C@@H]3OC)cnn12 [Compound I-1014], the Kd [2] was < 0.2 nM and the IC50 [1] was < 0.1 µM.

With CNc1cc(-c2cnc3n(C4CCOCC4)cccc2-3)nc2c(C(=O)N[C@@H]3CC[C@H]3OC)cnn12 [Compound I-1015] the Kd [2] was < 0.2 nM and the IC50 [1] was 0.5 to 1 µM.

CNc1cc(-c2cnc3n(C4CCN(CCOC)CC4)cccc2-3)nc2c(C(=O)N[C@H]3CC[C@@H]3OC)cnn12 [Compound I-1020, N-((1S,2S)-2-methoxycyclobutyl)-5-(7-(1-(2-methoxyethyl)piperidin-4-yl)-7H-pyrrolo[2,3-b]pyridin-3-yl)-7-(methylamino)pyrazolo[1,5-a]pyrimidine-3-carboxamide] was tested, and the Kd [2] was < 0.2 nM and the IC50 ([1]; 0.5 h) was < 0.1 µM.

For “N-((cis-1,2)-2-Hydroxycyclobutyl)-5-(1-((1s,3R)-3-hydroxycyclobutyl)-1H-pyrrolo[2,3-b]pyridin-3-yl)-7-(methylamino)pyrazolo[1,5-a]pyrimidine-3-carboxamide [Compound I-111]”, the Kd [2] was < 0.2 nM and the IC50 [1] was 0.1 to 0.5 µM.
